Experiments:
[1] = tested on: Salmonella typhimurium strain TA100; assay: Salmonella mutation assay (Ames test), TA100; format: cell-based
Description: Overnight bacterial cultures were mixed with various doses of test compounds with (+S9) or without (−S9) and incubated at 37 °C for 20 min. The top agar was added and then poured onto a plate of minimal glucose agar. The plates were incubated at 37 °C for 48 h. The number of revertant colonies was counted and the mutagenic index (MI) was calculated. 2-aminoanthracene (2-AA) and 2-(2-furyl)-3-(5-nitro-2-furyl)-acrylamide (AF-2) were used as positive mutagens in the presence and absence of S9.

[2] = SRB cytotoxicity assay, 3T3-L1 pre-adipocyte; format: cell-based, murine; details: mouse, 3T3-L1 pre-adipocytes; 3T3-L1 Pre-adipocyte, 48 h, SRB
From the text: (§1) HEK293 (Human embryonic kidney cell line), HepG2 (Human liver carcinoma cell line), LX-2 (Human hepatic stellate cell line), and 3T3-L1 (Murine preadipocyte cell line) cells were obtained from the American Type Culture Collection (ATCC), Bethesda, MD, USA.

3T3-L1 Pre-adipocyte = assay: SRB cytotoxicity assay, 3T3-L1 pre-adipocyte; format: cell-based, murine; details: 48 h
From the text: as §1

[3] = tested on: LX-2 (Human hepatic stellate cell line); assay: SRB cytotoxicity assay, LX-2; format: cell-based
From the text: as §1

[4] = SRB cytotoxicity assay, LX-2; format: cell-based, human; details: human, LX-2 cells; LX-2, 48 h, SRB
From the text: as §1

[5] = tested on: NO production in LPS-treated RAW 264.7 macrophages; assay: LPS-induced nitric oxide (NO)/nitrite production, Griess reaction; format: cell-based, murine; details: 100, 200, 400 µg/mL pretreatment 1 h, LPS 1 µg/mL 24 h
Description: To screen the anti-inflammation ability of the compounds, the nitrite level in the cultured medium of the treated cells was determined by the Griess reaction. RAW 264.7 macrophage cells were pretreated with various concentrations of the oligopeptide and its conjugated forms (100, 200, 400 µg/mL) for an hour and then incubated with LPS (1 µg/mL) for further 24 h at 37 °C in a 5% CO2 humidified atmosphere. The culture supernatant was collected for the Griess reagent assay as previous described. The NO production was calculated by comparison with LPS-treated controls.

[6] = tested on: HEK293 (Human embryonic kidney cell line); assay: SRB cytotoxicity assay, HEK293; format: cell-based
From the text: as §1

[7] = SRB cytotoxicity assay, HEK293; format: cell-based, human; details: human, HEK293 cells; HEK293, 48 h, SRB
From the text: as §1

Hemolysis assay = format: cell-based, human; details: human, 5% red blood cell suspension; 800 µg/mL, 5% RBCs, 37 °C, 3 h; read-out: % Hemolysis (n = 5)
From the text: (§2) As described by Karinchai et al., human peripheral blood mononuclear cells (PBMCs) and red blood cells (RBCs) were isolated from human blood samples [41]. Human blood samples of healthy subjects obtained from Maharaj Hospital, Chiang Mai, Thailand, were anonymized and kept in a heparinized tube by the laboratory. RBCs were collected and used to determined hemolysis induction by a hemolysis assay. Ficoll-Hypaque solution was used to isolate PBMCs, as described in the manufacturer’s instructions. A certificate of exemption by the Research Ethics Committee of the Faculty of Medicine, Chiang Mai University (No. EXEMPTION 8989/2022), was granted. Consent to participate was not applicable as all data were anonymized. All methods were carried out in accordance with relevant guidelines and regulations.
The hemolytic effect of the oligopeptide and its conjugated forms was determined by hemolysis assay. Briefly, the 5% RBCs suspension was mixed with various concentrations of the samples and further incubated at 37 °C for 3 h. The hemolysis induction by the compounds was measured as described previously. The hemolytic effect of each compound was interpreted using the following guidelines: 0–10% hemolysis is non-hemolysis, 10–25% hemolysis is slight hemolysis induction, and >25% hemolysis is high hemolysis induction.

COX-2 = COX-2 protein level by immunoblotting in LPS-treated RAW 264.7; format: cell-based, murine; details: 100, 200, 400 µg/mL, LPS 1 µg/mL 24 h
Description: RAW 264.7 macrophage cells were pretreated with various concentrations of the oligopeptide and its conjugated forms (100, 200, 400 µg/mL) for an hour and then incubated with LPS (1 µg/mL) for a further 24 h (at 37 °C in a 5% CO2 humidified atmosphere). The cells were then collected to investigate the iNOS and COX-2 protein levels. Cell lysate was prepared to obtain the protein samples. The samples were subjected to 10% sodium dodecyl sulfate polyacrylamide gel electrophoresis (SDS-PAGE). The separated proteins were electrically transferred to a nitrocellulose membrane. The target proteins were probed with specific antibodies, including anti-COX-2 antibody (Cell signaling, Danvers, MA, USA), anti-iNOS antibody (Merck, Rahway, NJ, USA), and anti-β-actin antibody (Sigma, St. Louis, MO, USA). Protein detection was performed using a chemiluminescence reagent (Bio-Rad Laboratories, Watford, UK).

[8] = tested on: human peripheral blood mononuclear cells (PBMCs); assay: SRB cytotoxicity assay, PBMCs; format: cell-based; details: up to 800 µg/mL
From the text: as §2, with “Karinchai” left out, “manufacturer's” for “manufacturer’s”

[9] = SRB cytotoxicity assay, PBMCs; format: cell-based, human; details: human, peripheral blood mononuclear cells (PBMCs); PBMCs, 800 µg/mL; read-out: % Cell Viability (n = 5)
From the text: as §2, with “Karinchai” left out, “manufacturer's” for “manufacturer’s”

RAW 264.7 cells = assay: Cell viability (SRB) of RAW 264.7 in the presence of LPS; format: cell-based, murine; details: up to 400 µg/mL, LPS 1 µg/mL, 24 h

OC[C@H]1OC(O)[C@@H](O)[C@@H](O)[C@@H]1O (stereo partly drawn) [Man, D-mannose]
His^+ Revertant Colonies per Plate ([1]; TA100, +S9, 0.04 mg per plate): 127.5 ± 2.5
His^+ Revertant Colonies per Plate ([1]; TA100, +S9, 0.2 mg per plate): 140.3 ± 2.3
His^+ Revertant Colonies per Plate ([1]; TA100, +S9, 1 mg per plate): 139.0 ± 0.7
His^+ Revertant Colonies per Plate ([1]; TA100, +S9, 5 mg per plate): 138.5 ± 4.2
mutagenicity ([1]; TA100, presence and absence of the S9 mix): did not cause any mutagenicity
His^+ Revertant Colonies per Plate ([1]; TA100, −S9, 0.04 mg per plate): 135.2 ± 5.2
His^+ Revertant Colonies per Plate ([1]; TA100, −S9, 0.2 mg per plate): 137.5 ± 4.5
His^+ Revertant Colonies per Plate ([1]; TA100, −S9, 1 mg per plate): 135.2 ± 4.5
His^+ Revertant Colonies per Plate ([1]; TA100, −S9, 5 mg per plate): 129.7 ± 4.7
IC20 at 48 h [2]: > 1000 µg/mL
IC50 (3T3-L1 Pre-adipocyte; Mus musculus, 3T3-L1 Pre-adipocyte, SRB, read-out: IC50): > 1000 µg/mL
toxicity to cells (3T3-L1 Pre-adipocyte; pre-3T3-L1, up to 1000 µg/mL): not toxic
IC50 ([3]; Homo sapiens, LX-2, 48 h, SRB, read-out: IC50): > 1000 µg/mL
toxicity to cells ([3]; LX-2, up to 1000 µg/mL, 48 h): not toxic
IC20 at 48 h [4]: > 1000 µg/mL
inhibition of LPS-induced NO production [5]: did not inhibit
toxicity to cells ([6]; HEK293, up to 1000 µg/mL, 48 h): not toxic
IC50 ([6]; Homo sapiens, HEK293, 48 h, SRB, read-out: IC50): > 1000 µg/mL
IC20 at 48 h [7]: > 1000 µg/mL
hemolysis at 3 h, 800 µg/mL (Hemolysis assay): 1.84 ± 0.42%
effect on COX-2 protein level (COX-2): did not affect
toxic effects to hPBMCs [8]: did not show any toxic effects
viability at 48 h, 800 µg/mL [9]: 106 ± 13.3%
cell viability of RAW 264.7 cells in the presence of LPS (RAW 264.7 cells): did not change
